These results are taken from patent publication EP4635969A1, “NOVEL GLUCOCORTICOID, METHOD FOR PREPARING SAME, AND USE THEREOF” (Tianjin Pharmaceutical Biotechnology Co., Ltd., priority 2022, dated 2024).

Each structure is given as a SMILES string. Where two headings read alike, the source gives them in different places.

Common to all, as to format: cell-based
The target of assay [1] is T1, glucocorticoid receptor (GR) (Homo sapiens, UniProt P04150).
T1 sequence (P04150 521-777): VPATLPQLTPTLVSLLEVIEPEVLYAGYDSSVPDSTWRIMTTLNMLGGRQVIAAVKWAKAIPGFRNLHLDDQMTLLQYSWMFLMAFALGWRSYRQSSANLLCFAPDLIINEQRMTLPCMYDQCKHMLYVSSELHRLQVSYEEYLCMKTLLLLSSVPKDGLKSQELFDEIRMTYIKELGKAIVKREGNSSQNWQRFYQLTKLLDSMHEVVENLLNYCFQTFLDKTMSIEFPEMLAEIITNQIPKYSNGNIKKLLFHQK
In words: Assay for agonist activity on glucocorticoid receptor (luciferase reporter, HEK293 cells transfected with pBIND-GR plasmid). In short, it runs like this:
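Readout is luciferase luminescence, with EC50 derived by nonlinear fitting. Compounds ran at 10 concentrations (4-fold steps, top 10 µM, duplicate wells) on pBIND-GR-transfected HEK293 cells in phenol red-free DMEM plus 5% charcoal-stripped serum; 0.1% DMSO served as blank.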

Assay [2] has as its target T2, mineralocorticoid receptor (MR) (Homo sapiens, UniProt P08235).
T2 sequence (P08235 726-984): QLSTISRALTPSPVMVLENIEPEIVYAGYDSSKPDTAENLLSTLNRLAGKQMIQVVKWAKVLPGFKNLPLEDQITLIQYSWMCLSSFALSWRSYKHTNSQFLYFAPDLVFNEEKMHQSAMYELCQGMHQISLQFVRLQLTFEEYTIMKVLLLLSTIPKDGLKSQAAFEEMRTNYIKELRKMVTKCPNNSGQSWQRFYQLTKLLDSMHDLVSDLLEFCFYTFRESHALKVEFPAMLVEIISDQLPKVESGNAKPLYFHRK
In words: Assay for agonist activity on mineralocorticoid receptor (luciferase reporter, HEK293 cells transfected with pBIND-MR plasmid). The conditions noted are these: for EC50: EC50 of agonist activity, HEK293 reporter cells, top concentration 50 µM, read-out: Nuclear receptor enzyme activity (nM) MR; for Target selectivity MR/GR: ratio of EC50 values. The protocol: (§1) Pharmacological Example 2: Assay for Agonist Activity on Mineralocorticoid Receptor (MR) and Progesterone Receptor (PR)
(§2) Test compound stock solutions: The test compounds (compounds 4, 5, 7, 8, 9, 11, 13, 16, 17, 18, 22, 23, 24, 34, 35, 36, 38, 41, 45, 47, 53, 55, and 59) were accurately weighed, dissolved in DMSO to prepare stock solutions at a concentration of 20 mM, and stored at -20 °C.
(§3) The test compounds were subjected to a 4-fold serial dilution starting from an initial concentration of 50 µ M, generating a 12-point concentration gradient with duplicate wells for each concentration. The blank control consisted of 0.1% DMSO.
(§4) The HEK293 stable cell lines […] transfected with mineralocorticoid receptor (MR) and progesterone receptor (PR) (ICE Bioscience, Lot No. TYP-20220819, TPJ-20220812) were cultured in Dulbecco's Modified Eagle Medium (DMEM) supplemented with 10% fetal bovine serum (FBS) and 200 µ g/ml Hygromycin B in a cell incubator containing 5% CO2 at 37 °C. The spent medium was aspirated, and the cells were washed once with phosphate-buffered saline (PBS). Then, 1 mL of TrypLE™ Express solution was added, and the cells were incubated at 37 °C for approximately 2 min. When the cells detached from the bottom of the cell culture dish, approximately 5 mL of pre-warmed complete medium at 37 °C was added. The cell suspension was gently pipetted with a pipette to dissociate clumped cells. The cell suspension was transferred to a sterile centrifuge tube and centrifuged at 1000 rpm for 5 min to pellet the cells for experiments or subculture..
(§5) HEK293 cells were digested and seeded into 6-cm culture dishes. The pBIND-MR and pBIND-PR plasmids were separately transfected into the HEK293 cells using a transfection reagent, resulting in HEK293 cells successfully transfected with the pBIND-MR and pBIND-PR plasmids, respectively. The cells were resuspended in phenol red-free DMEM medium containing 5% charcoal-stripped serum, counted, and then seeded into 96-well plates. The test compounds were added, and the plates were then incubated in an incubator. The luminescence signal values were measured using a multimode microplate reader following the instructions of the luciferase assay kit. The EC50 values of each test compound were calculated using the nonlinear fitting formula with GraphPad Prism 8.0 software.
In general terms: A reporter such as luciferase makes a cellular process visible.

Assay [3] deals with T3, progesterone receptor (PR) (Homo sapiens, UniProt P06401).
T3 sequence (P06401 678-933): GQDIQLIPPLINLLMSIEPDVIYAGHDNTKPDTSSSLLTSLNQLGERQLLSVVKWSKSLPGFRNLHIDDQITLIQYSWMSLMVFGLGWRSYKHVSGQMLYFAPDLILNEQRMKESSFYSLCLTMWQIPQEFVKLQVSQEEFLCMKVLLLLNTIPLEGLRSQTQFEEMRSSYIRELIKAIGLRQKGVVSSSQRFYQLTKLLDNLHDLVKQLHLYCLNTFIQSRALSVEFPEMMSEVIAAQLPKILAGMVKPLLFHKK
In words: Assay for agonist activity on progesterone receptor (luciferase reporter, HEK293 cells transfected with pBIND-PR plasmid). The note with it: for EC50: EC50 of agonist activity, HEK293 reporter cells, top concentration 50 µM, read-out: Nuclear receptor enzyme activity (nM) PR; for Target selectivity PR/GR: ratio of EC50 values. How it is done: as §1, §2, §3, §4, §5

Where [4] appears, read: EC50 of agonist activity, HEK293 reporter cells, read-out: Nuclear receptor enzyme activity (nM) GR.
[5] abbreviates: HEK293 cells transfected with pBIND-GR, luciferase signal, read-out: GR agonist EC50.

As for `C[C@]12C=CC(=O)C=C1[C@@H](F)C[C@H]1[C@@H]3C[C@H]4OC(c5ccc(CNC6CCOC6=O)cc5)O[C@@]4(C(=O)CO)[C@@]3(C)C[C@H](O)[C@@]12F` (stereo partly drawn) [Compound 9, (2S,6aS,6bR,7S,8aS,8bS,11aR,12aS,12bS)-2,6b-Difluoro-7-hydroxy-8b-(2-hydroxyacetyl)-6a,8a-dimethyl-10-(4-(((2-oxotetrahydrofuran-3-yl)amino)methyl)phenyl)-1,2,6a,6b,7,8,8a,8b,11a,12,12 a,12b-dodecahydro-4H-naphtho[2',1':4,5]indeno[1,2-d][1,3]dioxol-4-one], the EC50 in assay [1] (setting [4]) is 3.27 nM; in assay [1] (setting [5]), 3.27 nM; in assay [2], over 50000 nM; in assay [3] it was over 50000 nM. In addition, the “Target selectivity MR/GR” value in assay [2] was > 1.5×10^4. Besides, the “Target selectivity PR/GR” value in assay [3] was > 1.5×10^4.
Turning to `C[C@]12C=CC(=O)C=C1[C@@H](F)C[C@H]1[C@@H]3C[C@H]4OC(c5ccc(NC(=O)C6COC(=O)C6)cc5)O[C@@]4(C(=O)SCF)[C@@]3(C)C[C@H](O)[C@@]12F` (stereo partly drawn) [Compound 5, S-(Fluoromethyl) (2S,6aS,6bR,7S,8aS,8bS,11aR,12aS,12bS)-2,6b-difluoro-7-hydroxy-6a,8a-dimethyl-4-oxo-10-(4-(5-oxotetrahydrofuran-3-carboxamido)phenyl)-1,2,4,6a,6b,7,8,8a,11a,12,12a,12b-dodecahydro-8b H-naphtho[2',1':4,5]indeno[1,2-d][1,3]dioxole-8b-carbothioate], the EC50 was 5.23 nM in assay [1] (setting [4]), 5.23 nM in assay [1] (setting [5]), over 50000 nM in assay [2] and over 50000 nM in assay [3]. In assay [2], the “Target selectivity MR/GR” value is listed as over 9560. In addition, in assay [3], the “Target selectivity PR/GR” value was over 9560.
As to `C[C@]12C=CC(=O)C=C1CC[C@H]1[C@@H]3C[C@H]4OC(c5ccc(CSC6CCOC6=O)cc5)O[C@@]4(C(=O)CCl)[C@@]3(C)C[C@H](O)[C@@]12Cl` (stereo partly drawn) [Compound 38, (6aS,6bR,7S,8aS,8bS,11aR,12aS,12bS)-6b-chloro-8b-(2-chloroacetyl)-7-hydroxy-6a,8a-dimethyl-10-(4-(((2-oxotetrahydrofuran-3-yl)thio)methyl)phenyl)-1,2,6a,6b,7,8,8a,8b,11a,12,12a,12b-dode cahydro-4H-naphtho[2',1':4,5]indeno[1,2-d][1,3]dioxol-4-one], the EC50 in assay [1] (setting [4]) was 0.11 nM; in assay [1] (setting [5]), 0.11 nM; in assay [2] it was over 50000 nM; in assay [3], over 50000 nM. Also, the “Target selectivity MR/GR” value in assay [2] is listed as > 4.5×10^5. For the same compound, the “Target selectivity PR/GR” value in assay [3] was > 4.5×10^5.
As to `C[C@]12C=CC(=O)C=C1[C@@H](F)C[C@H]1[C@@H]3C[C@H]4OC(c5ccc(OCC6CCOC6=O)cc5)O[C@@]4(C(=O)CO)[C@@]3(C)C[C@H](O)[C@@]12F` (stereo partly drawn) [Compound 13, (2S,6aS,6bR,7S,8aS,8bS,11aR,12aS,12bS)-2,6b-Difluoro-7-hydroxy-8b-(2-hydroxyacetyl)-6a,8a-dimethyl-10-(4-((2-oxotetrahydrofuran-3-yl)methoxy)phenyl)-1,2,6a,6b,7,8,8a,8b,11a,12,12a,12b-dodecahydro-4H-naphtho[2',1':4,5]indeno[1,2-d][1,3]dioxol-4-one], the EC50 in assay [1] (setting [4]) is 3.43 nM; in assay [1] (setting [5]), 3.43 nM; in assay [2], over 50000 nM; in assay [3], over 50000 nM. In addition, the “Target selectivity MR/GR” value in assay [2] is on record as > 1.4×10^4. Further, the “Target selectivity PR/GR” value in assay [3] is reported as > 1.4×10^4.
